# Results taken from patent US8034388B2, “Anthocyanin-rich compositions and methods for inhibiting cancer cell growth” (The University of Maryland, priority 2003, dated 2011).
# Assays:
# [1] = test system: HCT-15 cells derived from human colon carcinoma; conditions: Kamei and coworkers (1995); cited from earlier work
# HT-29 colon cancer cells = test: Cell proliferation of HT-29 cells (hemacytometer count, Trypan blue exclusion); format: cell-based, human; conditions: HT-29 carcinoma cells, pure anthocyanin
# Experimental: Cell Culture—Human HT-29 colon cancer cells (ATCC, HTB 38) were grown in McCoy's 5A medium (BioWhitaker Inc., Walkersville, Md.), and normal colon epithelial cells, NCM460 (INCELL Corp. LLC, Austin, Tex.) were grown in 25% conditioned M3:10 medium (INCELL Corp., LLC). Media were supplemented with 10% fetal bovine serum (FBS) and 1× antibiotic-antimycotic (Invitrogen Corporation, Carlsbad, Calif.), and cells were maintained in a humidified atmosphere of 95% air/5% CO2 at 37° C. […] Cell Proliferation—Freshly trypsinized cells were seeded in 25-cm^2 (1×10^6 cells) or 75-cm^2 (2×10^6 cells) flasks in duplicate. The cells were grown for 24 h under normal growth conditions prior to treatment with chokeberry ARE. Freshly prepared ARE was added in concentrations ranging from 10 to 200 μg monomeric anthocyanin/ml medium. A vehicle control contained acidified water and was added at the same volume as ARE added to treated cells. […] Prior to exposure to ARE for 24 h, 48 h or 72 h treatments, the medium was replaced with fresh medium (10% FBS) containing either vehicle control (acidified water) or ARE. For each time point, the cells were trypsinized and centrifuged at 400 g for 10 min at room temperature. Aliquots of cells were counted using a hemacytometer and viability measured using Trypan blue dye exclusion.
Structure (SMILES),dose for 50% cell growth suppression [1],cancerous colonic cell growth (visual observations of cell growth and viability) (HT-29 colon cancer cells)
"Oc1ccc(-c2[o+]c3cc(O)cc(O)c3cc2O)cc1 [pelargonidin, Pelargonidin]",5 µg/mL,
"Oc1cc(O)c2cc(O)c(-c3ccc(O)c(O)c3)[o+]c2c1 [cyanidin, Cyanidin]",2 µg/mL,
"Oc1cc(O)c2cc(O)c(-c3cc(O)c(O)c(O)c3)[o+]c2c1 [delphinidin, Delphinidin]",0.5 µg/mL,
OC[C@H]1O[C@@H](Oc2cc3c(O)cc(O)cc3[o+]c2-c2ccc(O)c(O)c2)[C@H](O)[C@@H](O)[C@H]1O [cyanidin-3-galactoside],,notably inhibited
